{"source": "paper PMC6093650", "about": "“Antidepressive and anxiolytic effects of ostruthin, a TREK-1 channel activator” (PLoS ONE, 2018)", "key": {"KCNQ-1": {"target": "KCNQ-1 (Homo sapiens, UniProt P51787)", "assay": "whole-cell patch-clamp of KCNQ-1 currents in 293T cells", "assay_type": "cell-based", "conditions": "100 μM (data not shown)", "text": "For recordings of K^+ channel currents, we prepared stable cell lines for TREK-1, TWIK-related acid-sensitive K^+ channel (TASK-1), strongly inwardly rectifying K^+ channel (Kir2.1), and human ether-a-go-go-related gene (HERG-1) channels and transiently expressed other channels in 293T cells using a calcium-phosphate transfection method. For the establishment of the stable lines, we used lentiviral vectors, and the preparation methods for the lentiviral vectors were described in our previous report. TR-1 cells, which stably expressed TREK-1 channel and were grown on a small cover glass (3 × 18 mm), were placed in a recording chamber with an internal volume of 200 μl. Whole-cell currents were recorded in Tyrode solution using an Axopatch 200B amplifier (Axon Instruments, Foster City, CA) at 25°C. Tyrode solution contained (in mM): NaCl 140, KCl 5.4, NaH2PO4 0.33, CaCl2 2, MgCl2 1, HEPES 5, and glucose 5.5 (pH 7.4 adjusted with NaOH). […] Perfusion (100 μl/min) was continued to maintain the water level throughout recordings. pH and osmotic pressure of solutions were measured with a pH meter (Horiba, Kyoto, Japan) and a freezing point osmometer (Knauer, Berlin, Germany), respectively. […]"}, "[1]": {"system": "general locomotor activity of mice", "assay": "voluntary wheel running test", "assay_type": "in vivo", "conditions": "0, 2, 5, 20 mg/kg i.p., after elevated plus maze, 5 min, n = 7", "text": "Male ICR mice (n = 317 in total) aged 5 weeks and weighing 32 ± 2 g were purchased from Shimizu Laboratory Supplies (Kyoto, Japan). For the social defeat stress test, we used 28 C57BL/6J mice (5 weeks old, Shimizu Laboratory Supplies) and 30 ICR mice (7–8 weeks old, Charles River Labs Japan, Yokohama, Kanagawa, Japan). Mice were maintained for at least 1 week prior to experiments. Animals were kept in groups in plastic cages. They had free access to food and water, and were kept in a 12-h light/dark cycle (08:00–20:00). Experiments were carried out between 10:00 and 18:00 in a quiet and air-conditioned experimental room, in which mice were habituated for at least 30 min before each experiment. Animal experiments were performed in accordance with the guidelines of the Physiological Society of Japan and were approved by the Committees on Animal Experiments at Kansai Medical University and the Kurashiki University of Science and the Arts. Ostruthin was initially dissolved in DMSO at higher concentration (100 mM) and then diluted in phosphate-buffered saline (PBS). […]\nImmediately after the elevated plus maze test, the same mouse was subjected to the voluntary wheel running test. The number of rotations was measured for 5 min using an activity monitoring running wheel (Muromachi Kikai, Tokyo, Japan)."}}, "data": [{"smiles": "CC(C)=CCC/C(C)=C/Cc1cc2ccc(=O)oc2cc1O", "note": "[ostruthin]", "values": [{"measurement": "effect on KCNQ-1 channels", "setting": "KCNQ-1", "result": "no effect"}, {"measurement": "number of wheel rotations (voluntary motility)", "setting": "[1]", "result": "no effect at any dose"}]}]}
